Assay [1] has as its target T1, PSMA-expressing C4-2 cells (Homo sapiens, UniProt Q04609).
T1 construct: PSMA-expressing C4-2 cells (ATCC, Cat. No. CRL-3314) were cultured in RPMI-1640; host or cells: C4-2 cells
In words: FACS binding assay (competition with 50 nM PSM-0183). Conditions: FACS binding, read-out: pIC50 [C4-2] CAT (converted). The gist of the method:
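Competition format: fluorescent tracer PSM-0183 (50 nM) displaced from PSMA on C4-2 cells by a test compound titration over 1 h at 4 °C. Bound tracer was quantified as flow-cytometric AF488 median fluorescence after washing. Four-parameter logistic fits of MFI data gave IC50 and pIC50.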

For assay [2], the target named is T2, Fc-fusion protein of human PSMA (hPSMA-Fc) (Homo sapiens, UniProt Q04609).
T2 construct: purchased Acro Biosystems PSA-H5264
In words: Surface plasmon resonance assay (Biacore T200, single cycle kinetic). Format: binding. The following applies: hPSMA-Fc, 25° C., read-out: pKD CAT (converted). The gist of the method:
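KD, expressed as pKD, came from 1:1 Langmuir fits of reference- and buffer-blank-subtracted SPR data. The runs were single-cycle kinetics at 25° C in HBST/0.1% DMSO over human PSMA-Fc, captured to ~1000 RU on a peptide-coated CM5 surface and regenerated with 10 mM glycine pH 1.5.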
(Surface plasmon resonance follows binding to a sensor surface in real time, without labels.)

Where [3] appears, read: C4-2 cells, competition with 50 nM PSM-0183, category.
Where [4] appears, read: SPR, single cycle kinetic, category.
Setting [5] is: PSMA-expressing C4-2 cells, pIC50 category.

Read-outs that look alike come from different tables or passages of the source. Numbered stars: 1 amine (or outer) side, 2 acyl side, 3 side chain; on linkers, the order of the positions; unused ones are H or OH. Bridge positions count the residues as written; N and C are the ends. Square brackets hold non-standard residues; d marks the D form. Peptide text beside a SMILES is read from it. * marks the point of attachment. TtdsdLys(DOTA)NH2 = NC(=O)[C@@H](CCCCNC(=O)CN1CCN(CC(=O)O)CCN(CC(=O)O)CCN(CC(=O)O)CC1)NC(=O)CCC(=O)NCCCOCCOCCOCCCN*; X7 = O=C(O)CN1CCN(CC(=O)O)CCN(CC(=O)NC2CCN(CC(=O)*)CC2)CCN(CC(=O)O)CC1; DOTA = O=C(O)CN1CCN(CC(=O)O)CCN(CC(=O)*)CCN(CC(=O)O)CC1; Phe(3,4-Cl2) = N[C@@H](Cc1ccc(Cl)c(Cl)c1)C(=O)O; Phe(3-CF3) = N[C@@H](Cc1cccc(C(F)(F)F)c1)C(=O)O; Phe(3-Cl) = N[C@@H](Cc1cccc(Cl)c1)C(=O)O; Phe(4-CN) = N#Cc1ccc(C[C@H](N)C(=O)O)cc1; Phe(4-Cl) = N[C@@H](Cc1ccc(Cl)cc1)C(=O)O; X1 = O=C(CC1CCN([*:1])CC1)[*:2]; Cit = NC(=O)NCCC[C@H](N)C(=O)O; Tle = CC(C)(C)[C@H](N)C(=O)O; 4Amb = NCc1ccc(C(=O)O)cc1; Aib = CC(C)(N)C(=O)O

T1 sequence (Q04609 whole entry): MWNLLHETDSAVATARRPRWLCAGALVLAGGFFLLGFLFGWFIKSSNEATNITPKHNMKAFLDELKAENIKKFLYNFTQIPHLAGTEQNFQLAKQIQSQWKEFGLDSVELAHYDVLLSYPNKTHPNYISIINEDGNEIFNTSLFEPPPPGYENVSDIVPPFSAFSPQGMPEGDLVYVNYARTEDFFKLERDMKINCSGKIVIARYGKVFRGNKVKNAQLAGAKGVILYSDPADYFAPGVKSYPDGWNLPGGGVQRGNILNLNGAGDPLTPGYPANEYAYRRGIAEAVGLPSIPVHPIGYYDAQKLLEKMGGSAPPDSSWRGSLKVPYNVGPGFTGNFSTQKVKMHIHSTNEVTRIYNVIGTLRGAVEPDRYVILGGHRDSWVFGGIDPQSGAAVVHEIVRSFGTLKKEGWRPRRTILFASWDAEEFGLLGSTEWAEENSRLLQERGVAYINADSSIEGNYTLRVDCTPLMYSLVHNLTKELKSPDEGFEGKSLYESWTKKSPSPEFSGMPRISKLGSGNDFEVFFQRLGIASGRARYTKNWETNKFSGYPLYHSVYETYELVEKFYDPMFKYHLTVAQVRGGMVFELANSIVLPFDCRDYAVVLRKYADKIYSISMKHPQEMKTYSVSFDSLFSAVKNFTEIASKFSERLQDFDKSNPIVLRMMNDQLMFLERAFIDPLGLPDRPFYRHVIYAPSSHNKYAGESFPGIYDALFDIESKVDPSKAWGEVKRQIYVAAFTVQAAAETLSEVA
T2 sequence (Q04609 44-750 limits assumed): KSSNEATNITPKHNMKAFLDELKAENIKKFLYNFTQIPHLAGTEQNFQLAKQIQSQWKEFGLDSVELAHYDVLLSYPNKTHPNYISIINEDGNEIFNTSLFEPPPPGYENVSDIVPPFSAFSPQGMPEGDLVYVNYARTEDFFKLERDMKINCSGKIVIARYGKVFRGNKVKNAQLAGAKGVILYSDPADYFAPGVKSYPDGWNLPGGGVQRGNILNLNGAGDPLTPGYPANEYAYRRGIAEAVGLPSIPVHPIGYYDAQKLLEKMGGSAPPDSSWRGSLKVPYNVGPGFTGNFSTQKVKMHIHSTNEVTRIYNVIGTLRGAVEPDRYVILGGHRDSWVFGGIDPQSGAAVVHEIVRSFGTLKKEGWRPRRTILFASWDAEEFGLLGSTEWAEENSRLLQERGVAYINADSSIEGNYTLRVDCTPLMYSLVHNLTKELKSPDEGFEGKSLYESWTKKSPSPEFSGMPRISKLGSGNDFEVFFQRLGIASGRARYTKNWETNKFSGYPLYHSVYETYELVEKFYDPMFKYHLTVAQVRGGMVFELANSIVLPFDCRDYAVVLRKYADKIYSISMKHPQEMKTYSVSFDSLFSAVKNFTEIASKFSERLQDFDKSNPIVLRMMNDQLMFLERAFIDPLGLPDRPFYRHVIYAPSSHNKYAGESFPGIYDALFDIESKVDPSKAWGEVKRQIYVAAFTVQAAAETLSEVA

For `CC(=O)N[C@H](C(=O)NC(C)(C)C(=O)N[C@@H](Cc1cccc(C(F)(F)F)c1)C(=O)N[C@H]1CSSC[C@@H](C(=O)N[C@H](C(=O)N[C@H](C(N)=O)[C@@H](C)O)C(C)(C)C)NC(=O)[C@H](CC(N)=O)NC(=O)C(C)(C)NC(=O)[C@H](CCCNC(=N)N)NC(=O)[C@H](CCCCN)NC1=O)[C@@H](C)O` [PSM-0264, Ac-Thr-Aib-Mtf-[Cys-Lys-Arg-Aib-Asn-Cys]-Tle-Thr-NH2] (Ac-T[Aib][Phe(3-CF3)]CKR[Aib]NC[Tle]T-NH2; disulfide 4-9), the IC50 in assay [1] (setting [3]) is less than 200 nM. Moreover, the Kd in assay [2] (setting [4]) is less than 12.6 nM.

With `CC(=O)N[C@H](C(=O)N[C@@H](C)C(=O)N[C@@H](Cc1ccccc1)C(=O)N[C@H]1CSSC[C@@H](C(=O)N[C@H](C(=O)N[C@H](C(=O)N[C@@H](CC(=O)O)C(=O)NCCCOCCOCCOCCCNC(=O)CCC(=O)N[C@H](CCCCNC(=O)CN2CCN(CC(=O)O)CCN(CC(=O)O)CCN(CC(=O)O)CC2)C(N)=O)[C@@H](C)O)C(C)(C)C)NC(=O)[C@H](CC(N)=O)NC(=O)[C@H](C)NC(=O)[C@H](CCCNC(=N)N)NC(=O)[C@H](CCCCN)NC1=O)[C@@H](C)O` [PSM-0266, Ac-Thr-Ala-Phe-[Cys-Lys-Arg-Ala-Asn-Cys]-Tle-Thr-Asp-Ttds-lys(DOTA)-NH2] (Ac-TAFCKRANC[Tle]TD-{TtdsdLys(DOTA)NH2}; disulfide 4-9), in assay [1] (setting [3]), the IC50 was less than 200 nM. The Kd in assay [2] (setting [4]) was 12.6 to 126 nM.

`C[C@@H](O)[C@H](NC(=O)[C@@H](NC(=O)[C@@H]1CSSC[C@H](NC(=O)[C@H](Cc2ccccc2)NC(=O)C(C)(C)NC(=O)c2ccc(CNC(=O)CN3CCN(CC(=O)O)CCN(CC(=O)O)CCN(CC(=O)O)CC3)cc2)C(=O)N[C@@H](CCCCN)C(=O)N[C@@H](CCCNC(=N)N)C(=O)NC(C)(C)C(=O)N[C@@H](CC(N)=O)C(=O)N1)C(C)(C)C)C(N)=O` [PSM-0270, DOTA-Pamb-Aib-Phe-[Cys-Lys-Arg-Aib-Asn-Cys]-Tle-Thr-NH2] ({DOTA-4Amb}-[Aib]FCKR[Aib]NC[Tle]T-NH2; disulfide 3-8): the IC50 in assay [1] (setting [5]) is less than 200 nM. For the same compound, the Kd in assay [2] (PSMA SPR assay, pKD category) is less than 12.6 nM.

Regarding `C[C@@H](O)[C@H](NC(=O)[C@@H](NC(=O)[C@@H]1CSSC[C@H](NC(=O)[C@H](Cc2ccc(Cl)c(Cl)c2)NC(=O)C(C)(C)NC(=O)[C@@H](NC(=O)CC2CCN(C(=O)CN3CCN(CC(=O)O)CCN(CC(=O)O)CCN(CC(=O)O)CC3)CC2)[C@@H](C)O)C(=O)N[C@@H](CCCCN)C(=O)N[C@@H](CCCNC(N)=O)C(=O)NC(C)(C)C(=O)N[C@@H](CC(N)=O)C(=O)N1)C(C)(C)C)C(N)=O` [PSM-0274, DOTA-Cmp-Thr-Aib-Eaa-[Cys-Lys-Cit-Aib-Asn-Cys]-Tle-Thr-NH2] ({DOTA}-[X1]T[Aib][Phe(3,4-Cl2)]CK[Cit][Aib]NC[Tle]T-NH2; disulfide 5-10), in assay [1] (setting [5]), the IC50 is less than 200 nM. Further, the Kd in assay [2] (PSMA SPR assay, pKD category) was 12.6 to 126 nM.

Consider `CC(=O)N[C@H](C(=O)NC(C)(C)C(=O)N[C@@H](Cc1cccc(Cl)c1)C(=O)N[C@H]1CSSC[C@@H](C(=O)N[C@H](C(=O)N[C@H](C(=O)N2CCC(CC(=O)N[C@H](CCCCNC(=O)CN3CCN(CC(=O)O)CCN(CC(=O)O)CCN(CC(=O)O)CC3)C(N)=O)CC2)[C@@H](C)O)C(C)(C)C)NC(=O)[C@H](CC(N)=O)NC(=O)C(C)(C)NC(=O)[C@H](CCCNC(N)=O)NC(=O)[C@H](CCCCN)NC1=O)[C@@H](C)O` [PSM-0275, Ac-Thr-Aib-Mcf-[Cys-Lys-Cit-Aib-Asn-Cys]-Tle-Thr-Cmp-lys(DOTA)-NH2] (Ac-T[Aib][Phe(3-Cl)]CK[Cit][Aib]NC[Tle]T[X1][dK](DOTA)-NH2; disulfide 4-9), for which, in assay [1] (setting [5]), the IC50 was 200 to 1260 nM. Moreover, the Kd in assay [2] (PSMA SPR assay, pKD category) was 12.6 to 126 nM.

As for `C[C@@H](O)[C@H](NC(=O)[C@@H](NC(=O)[C@@H]1CSSC[C@H](NC(=O)[C@H](Cc2ccc(Cl)cc2)NC(=O)[C@H](CCC(=O)O)NC(=O)[C@@H](NC(=O)CC2CCN(C(=O)CN3CCN(CC(=O)O)CCN(CC(=O)O)CCN(CC(=O)O)CC3)CC2)[C@@H](C)O)C(=O)N[C@@H](CCCCN)C(=O)N[C@@H](CCCNC(=N)N)C(=O)NC(C)(C)C(=O)N[C@@H](CC(N)=O)C(=O)N1)C(C)(C)C)C(N)=O` [PSM-0276, DOTA-Cmp-Thr-Glu-Pcf-[Cys-Lys-Arg-Aib-Asn-Cys]-Tle-Thr-NH2] ({DOTA}-[X1]TE[Phe(4-Cl)]CKR[Aib]NC[Tle]T-NH2; disulfide 5-10), the IC50 in assay [1] (setting [5]) is more than 3160 nM. The Kd in assay [2] (PSMA SPR assay, pKD category) was more than 501 nM.

With `CC(=O)N[C@H](C(=O)NC(C)(C)C(=O)N[C@@H](Cc1ccc(C#N)cc1)C(=O)N[C@H]1CSSC[C@@H](C(=O)N[C@H](C(=O)N[C@H](C(N)=O)[C@@H](C)O)C(C)(C)C)NC(=O)[C@H](CC(N)=O)NC(=O)C(C)(C)NC(=O)[C@H](CCCNC(=N)N)NC(=O)[C@H](CCCCN)NC1=O)[C@@H](C)O` [PSM-0278, Ac-Thr-Aib-Pnf-[Cys-Lys-Arg-Aib-Asn-Cys]-Tle-Thr-NH2] (Ac-T[Aib][Phe(4-CN)]CKR[Aib]NC[Tle]T-NH2; disulfide 4-9), the IC50 in assay [1] (setting [5]) was less than 200 nM. For the same compound, the Kd in assay [2] (PSMA SPR assay, pKD category) was less than 12.6 nM.

On to `CC(=O)N[C@H](C(=O)NC(C)(C)C(=O)N[C@@H](Cc1ccccc1)C(=O)N[C@H]1CSSC[C@@H](C(=O)N[C@H](C(=O)N[C@H](C(N)=O)[C@@H](C)O)C(C)(C)C)NC(=O)[C@H](CO)NC(=O)C(C)(C)NC(=O)[C@H](CCCNC(=N)N)NC(=O)[C@H](CCCCN)NC1=O)[C@@H](C)O` [PSM-0279, Ac-Thr-Aib-Phe-[Cys-Lys-Arg-Aib-Ser-Cys]-Tle-Thr-NH2] (Ac-T[Aib]FCKR[Aib]SC[Tle]T-NH2; disulfide 4-9), for which the IC50 in assay [1] (setting [5]) was less than 200 nM. In addition, the Kd in assay [2] (PSMA SPR assay, pKD category) is less than 12.6 nM.

In the case of `CC(=O)N[C@H](C(=O)NC(C)(C)C(=O)N[C@@H](Cc1ccccc1)C(=O)N[C@H]1CSSC[C@@H](C(=O)N[C@H](C(=O)N[C@H](C(=O)N[C@@H](CC(=O)O)C(N)=O)[C@@H](C)O)C(C)(C)C)NC(=O)[C@H](CC(N)=O)NC(=O)C(C)(C)NC(=O)[C@H](CCCNC(N)=O)NC(=O)[C@H](CCCCN)NC1=O)[C@@H](C)O` [PSM-0280, Ac-Thr-Aib-Phe-[Cys-Lys-Cit-Aib-Asn-Cys]-Tle-Thr-Asp-NH2] (Ac-T[Aib]FCK[Cit][Aib]NC[Tle]TD-NH2; disulfide 4-9), the IC50 in assay [1] (setting [5]) is less than 200 nM. For the same compound, the Kd in assay [2] (PSMA SPR assay, pKD category) was less than 12.6 nM.

Take `CC(=O)N[C@@H](Cc1ccc(Cl)cc1)C(=O)N[C@H]1CSSC[C@@H](C(=O)N[C@H](C(N)=O)C(C)(C)C)NC(=O)[C@H](CC(N)=O)NC(=O)C(C)(C)NC(=O)[C@H](CCCNC(=N)N)NC(=O)[C@H](CCCCN)NC1=O` [PSM-0281, Ac-Pcf-[Cys-Lys-Arg-Aib-Asn-Cys]-Tle-NH2] (Ac-[Phe(4-Cl)]CKR[Aib]NC[Tle]-NH2; disulfide 2-7): the IC50 in assay [1] (setting [5]) was more than 3160 nM. Further, the Kd in assay [2] (PSMA SPR assay, pKD category) was more than 501 nM.

As to `CC(=O)NC(C)(C)C(=O)N[C@@H](Cc1ccc(Cl)cc1)C(=O)N[C@H]1CSSC[C@@H](C(=O)N[C@H](C(=O)N[C@H](C(N)=O)[C@@H](C)O)C(C)(C)C)NC(=O)[C@H](CC(N)=O)NC(=O)[C@H](CCCCNC(=O)CN2CCC(NC(=O)CN3CCN(CC(=O)O)CCN(CC(=O)O)CCN(CC(=O)O)CC3)CC2)NC(=O)[C@H](CCCNC(=N)N)NC(=O)[C@H](CCCCN)NC1=O` [PSM-0282, Ac-Aib-Pcf-[Cys-Lys-Arg-Lys(DOTA-APAc)-Asn-Cys]-Tle-Thr-NH2] (Ac-[Aib][Phe(4-Cl)]CKRK(X7)NC[Tle]T-NH2; disulfide 3-8), the IC50 in assay [1] (setting [5]) was less than 200 nM. In assay [2] (PSMA SPR assay, pKD category), the Kd is less than 12.6 nM.
